Literature values as cited in patent US20040115749A1, “Cardiovascular disease and thrombotic risk diagnostic tests” (priority 2001, published 2004).

System: ELISA kit for 13(S)-HODE (anti-13(S)-HODE specific antibody)
Details: commercial ELISA kit for 13(S)-HODE

## CCCCC[C@@H](O)/C=C/C=C\CCCCCCCC(=O)O [13(R)-HODE]
  cross-reactivity: 10%
